According to PubChem BioAssay AID1963856 (Molecular Pharmacology Branch, DTP, NCI, 2024):

System: LG0567-F671-PDC KRAS tumor spheroid viability
Test: Anticancer human tumor LG0567-F671-PDC patient-derived lung adenocarcinoma cell line growth inhibition [KRAS2]
Settings: spheroids with HUVEC and MSC; for viability, T/C: stronger effect = lower value; active means viability on the fitted dose curve at most 10% of control; inactive means the rest
In short: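 KRAS-mutant tumor cells were grown as spheroids with HUVEC endothelial cells and human MSCs as stroma. Targeted agents were tested alone and with KRAS pathway inhibitors. Doses started at or near clinical Cmax, or 10 microM, descending half-log.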

[1] = curve of first compound, second compound 0.1 µM
[2] = curve of first compound, second compound 0.316 µM
[3] = curve of first compound, second compound 1 µM
[4] = curve of first compound, second compound 3.16 µM
[5] = curve of first compound, second compound 10 µM
[6] = second compound 0.1 µM, first compound 0.0316 µM
[7] = second compound 0.1 µM, first compound 0.1 µM
[8] = second compound 0.316 µM, first compound 0.0316 µM
[9] = second compound 0.316 µM, first compound 0.1 µM
[10] = second compound 1 µM, first compound 0.0316 µM
[11] = second compound 1 µM, first compound 0.1 µM
[12] = second compound 3.16 µM, first compound 0.0316 µM
[13] = second compound 3.16 µM, first compound 0.1 µM
[14] = second compound 10 µM, first compound 0.0316 µM
[15] = second compound 10 µM, first compound 0.1 µM
[16] = second compound 0.1 µM, first compound 0.316 µM
[17] = second compound 0.1 µM, first compound 1 µM
[18] = second compound 0.1 µM, first compound 3.16 µM
[19] = second compound 0.1 µM, first compound 10 µM
[20] = second compound 0.316 µM, first compound 0.316 µM
[21] = second compound 0.316 µM, first compound 1 µM
[22] = second compound 0.316 µM, first compound 3.16 µM
[23] = second compound 0.316 µM, first compound 10 µM
[24] = second compound 1 µM, first compound 0.316 µM
[25] = second compound 1 µM, first compound 1 µM
[26] = second compound 1 µM, first compound 3.16 µM
[27] = second compound 1 µM, first compound 10 µM
[28] = second compound 3.16 µM, first compound 0.316 µM
[29] = second compound 3.16 µM, first compound 1 µM
[30] = second compound 3.16 µM, first compound 3.16 µM
[31] = second compound 3.16 µM, first compound 10 µM
[32] = second compound 10 µM, first compound 0.316 µM
[33] = second compound 10 µM, first compound 1 µM
[34] = second compound 10 µM, first compound 3.16 µM
[35] = second compound 10 µM, first compound 10 µM
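Further: drug exposure lasted seven days after spheroids formed for three days.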
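Wherever viability, T/C is given: 100% = DMSO vehicle control viability.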

Cn1ncnc1[C@H]1c2n[nH]c(=O)c3cc(F)cc(c23)N[C@@H]1c1ccc(F)cc1 + CC1OCC2(CCN(c3cnc(Sc4ccnc(N)c4Cl)c(N)n3)CC2)C1N
inactive: viability, T/C (second compound 0.1 µM, first compound 0.000316 µM) 48.9% | viability, T/C (second compound 0.1 µM, first compound 0.001 µM) 53.1% | viability, T/C (second compound 0.1 µM, first compound 0.00316 µM) 52.4% | viability, T/C (second compound 0.1 µM, first compound 0.01 µM) 56.4% | viability, T/C [6] 57.3% | viability, T/C [7] 54.9% | viability, T/C (second compound 0.316 µM, first compound 0.000316 µM) 47% | viability, T/C (second compound 0.316 µM, first compound 0.001 µM) 34.5% | viability, T/C (second compound 0.316 µM, first compound 0.00316 µM) 29.1% | viability, T/C (second compound 0.316 µM, first compound 0.01 µM) 36.4% | viability, T/C [8] 32.8% | viability, T/C [9] 35.2% | viability, T/C (second compound 1 µM, first compound 0.000316 µM) 29.4% | viability, T/C (second compound 1 µM, first compound 0.001 µM) 25.9% | viability, T/C (second compound 1 µM, first compound 0.00316 µM) 21.9% | viability, T/C (second compound 1 µM, first compound 0.01 µM) 18.9% | viability, T/C [10] 22.5% | viability, T/C [11] 23.3% | viability, T/C (second compound 3.16 µM, first compound 0.000316 µM) 24.4% | viability, T/C (second compound 3.16 µM, first compound 0.001 µM) 19.1% | viability, T/C (second compound 3.16 µM, first compound 0.00316 µM) 19.1% | viability, T/C (second compound 3.16 µM, first compound 0.01 µM) 15.3% | viability, T/C [12] 12% | viability, T/C [13] 13.8% | viability, T/C (second compound 10 µM, first compound 0.000316 µM) 11.2% | viability, T/C (second compound 10 µM, first compound 0.001 µM) 12.2% | viability, T/C (second compound 10 µM, first compound 0.00316 µM) 15.7% | viability, T/C (second compound 10 µM, first compound 0.01 µM) 9.32% | viability, T/C [14] 8.87% | viability, T/C [15] 7.89%
< 0.000316 µM: IC50 [1] | IC50 [2] | IC50 [3] | IC50 [4] | IC50 [5]

Cn1nccc1Nc1nccc(-c2cc3c(s2)C(C)(C)N(CCN2CCOCC2)C3=O)n1 + CC1OCC2(CCN(c3cnc(Sc4ccnc(N)c4Cl)c(N)n3)CC2)C1N
< 0.0316 µM: IC50 [2] | IC50 [3] | IC50 [4] | IC50 [5]
active: viability, T/C [31] 10.8% | viability, T/C [15] 10.7% | viability, T/C [32] 10.5% | viability, T/C [33] 4.14% | viability, T/C [34] 3.55% | viability, T/C [35] 5.13%
inactive: viability, T/C [6] 60.6% | viability, T/C [7] 52% | viability, T/C [16] 46.3% | viability, T/C [17] 38.9% | viability, T/C [18] 24.1% | viability, T/C [19] 23.4% | viability, T/C [8] 36.8% | viability, T/C [9] 35.9% | viability, T/C [20] 29.7% | viability, T/C [21] 24.3% | viability, T/C [22] 21.5% | viability, T/C [23] 18.2% | viability, T/C [10] 32.6% | viability, T/C [11] 29.5% | viability, T/C [24] 21% | viability, T/C [25] 18.3% | viability, T/C [26] 16.4% | viability, T/C [27] 12.4% | viability, T/C [12] 18.6% | viability, T/C [13] 19.6% | viability, T/C [28] 17.9% | viability, T/C [29] 9.57% | viability, T/C [30] 7.17% | viability, T/C [14] 10.2%
0.18 µM: IC50 [1]

CC1(C)CCC(CN2CCN(c3ccc(C(=O)NS(=O)(=O)c4ccc(NCC5CCOCC5)c([N+](=O)[O-])c4)c(Oc4cnc5[nH]ccc5c4)c3)CC2)=C(c2ccc(Cl)cc2)C1
2.84 µM [middle of 5 runs]: IC50 (curve of compound)
inactive: viability, T/C (compound 0.0316 µM) 98.2% [middle of 5 runs] | viability, T/C (compound 0.1 µM) 94.7% [middle of 5 runs] | viability, T/C (compound 0.316 µM) 87% [middle of 5 runs] | viability, T/C (compound 1 µM) 89.9% [middle of 5 runs] | viability, T/C (compound 3.16 µM) 45.9% [middle of 5 runs]
12.4% [middle of 5 runs]: viability, T/C (compound 10 µM)

CCNC(=O)CC1N=C(c2ccc(Cl)cc2)c2cc(OC)ccc2-n2c(C)nnc21 (configuration not stated) + C=CC(=O)N1CCN(c2nc(=O)n(-c3c(C)ccnc3C(C)C)c3nc(-c4c(O)cccc4F)c(F)cc23)C(C)C1
active: viability, T/C [31] 10.2% | viability, T/C [35] 9.1%
inactive: viability, T/C [6] 35% | viability, T/C [7] 33% | viability, T/C [16] 24.3% | viability, T/C [17] 18.5% | viability, T/C [18] 15.2% | viability, T/C [19] 12.9% | viability, T/C [8] 28.9% | viability, T/C [9] 34.7% | viability, T/C [20] 25.1% | viability, T/C [21] 18.7% | viability, T/C [22] 15.3% | viability, T/C [23] 13.2% | viability, T/C [10] 32.7% | viability, T/C [11] 31.1% | viability, T/C [24] 22% | viability, T/C [25] 16% | viability, T/C [26] 15.8% | viability, T/C [27] 12.4% | viability, T/C [12] 25.9% | viability, T/C [13] 30.1% | viability, T/C [28] 20.9% | viability, T/C [29] 16.3% | viability, T/C [30] 12.8% | viability, T/C [14] 24.3% | viability, T/C [15] 26.2% | viability, T/C [32] 17% | viability, T/C [33] 10.3% | viability, T/C [34] 9.13%
< 0.0316 µM: IC50 [1] | IC50 [2] | IC50 [3] | IC50 [4] | IC50 [5]
